Experimental findings from the METLIN SMRT retention time set (Domingo-Almenara et al. 2019) are described below.

The series in a line: gradient 5% acetonitrile 3 min, to 50% in 2 min, to 85% in 15 min, held 3 min, 100 µL/min. To be noted: column: Zorbax Extend-C18 2.1 x 50 mm; eluents: water / acetonitrile, 0.1% formic acid. The gist of the method: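 Retention times come from adduct peaks that were picked computationally and then checked by hand. The standards, pure and pooled in mixtures of ~100 molecules, were run on a Zorbax Extend-C18 column (2.1 × 50 mm, 1.8 μm) at 100 μL/min with water and acetonitrile, each with 0.1% formic acid. Detection was by quadrupole time-of-flight mass spectrometry in positive and negative ionization mode, with a dead volume of 40 μL and a dwell volume of 900 μL.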
Consider `CCc1ccc(S(=O)(=O)N2CC(F)(F)C[C@H]2CN2CCc3ccccc3C2)cc1`, for which the RP-LC retention time was determined as 808 s.

As for `Cn1c(=O)n(C)c2cc(CNc3ccc4c(c3)OCO4)ccc21`, the RP-LC retention time amounted to 630 s. The compound `Cc1cc(N(C)C)nc(N2CCN(S(=O)(=O)c3cc(C)c(C)cc3C)CC2)n1` yielded an RP-LC retention time of 793 s.

Turning to `O=C(CN1C[C@H]2C[C@H](C1)[C@H]1CCCC(=O)N1C2)NCc1cccs1`, the RP-LC retention time amounted to 578 s.

`Cc1cc(C)n(CCNc2nc3c(F)cc(F)cc3s2)n1` had an RP-LC retention time of 732 s. On to `CCOc1ccc(-c2csc(Nc3cc(C)ccn3)n2)cc1`, for which the RP-LC retention time was found to be 833 s. For `CCN1CCN(c2cc(C)c3cc(NC(=O)CSc4ccccc4)ccc3n2)CC1` the value was 602 s; for `CCn1nc(C)n2cc(S(=O)(=O)NCc3cccc(C)c3)cc2c1=O`, 882 s; for `COc1ncc(C(=O)Nc2ccc(C)cc2C)c(C)n1`, 736 s. `COc1ccc(-c2csc(Cc3nc(-c4ccccc4Cl)no3)n2)cc1` yielded an RP-LC retention time of 1160 s. Regarding `CCCOc1nc2ccccc2nc1N1CCCC(C(=O)NC2CCCCC2C)C1` (stereo unspecified), the RP-LC retention time is 1310 s. In turn, `COC(=O)c1cc(C)nc2c1c(=O)n(Cc1ccc(OC)cc1)c(=O)n2C` came in with an RP-LC retention time of 953 s. For `O=C(c1ccccc1Sc1nccnc1Oc1ccccc1)N1CCOCC1` the value was 859 s. The compound `O=c1ccc(-c2cccc(Br)c2)nn1Cc1ccncc1` came in with an RP-LC retention time of 595 s.

Compound `CCn1c(=O)c(N2CCCC(C(=O)NCCCN3CCOCC3)C2)nc2cccnc21` (stereo unspecified) came in with an RP-LC retention time of 621 s. Regarding `COc1cccc(C2Cn3nnc(-c4nc(-c5ccc(C)c(C)c5)no4)c3CO2)c1` (stereo unspecified), the RP-LC retention time is 1270 s. `Cc1ccc(-n2ncc3c(=O)n(Cc4nc(-c5ccccc5)no4)cnc32)cc1` yielded an RP-LC retention time of 1080 s.

`Cc1ccc(C)c(NC(=O)c2cn3c(n2)CCCC3)c1`: the RP-LC retention time worked out at 603 s. `CNC(=O)c1ccsc1NC(=O)c1cn(C)nc1OC` returned an RP-LC retention time of 616 s.

For `O=C(O)c1nnn(-c2ccc(C(F)(F)F)cc2)c1C(F)(F)F`, the RP-LC retention time worked out at 824 s. For the compound `CCCNC(=O)CC1CCN(C(=O)c2[nH]c(C)c(C(=O)OC(C)C)c2C)CC1`, the RP-LC retention time was 724 s. As for `CCCN1C(=O)c2cc(C(=O)NCc3ccc(C)cc3)nn2CC1(C)C(=O)NC1CCCC1` (stereo unspecified), the RP-LC retention time turned out to be 854 s. `CC(C)NC(=O)c1ccc(OCC2CCN(C(=O)c3ccc(C(F)(F)F)cc3)CC2)cc1` gave an RP-LC retention time of 935 s. Turning to `Cc1ccccc1Nc1c(-c2ccccc2)nc2cccc(C)n12`, the RP-LC retention time worked out at 750 s. Next, `CCOc1ccccc1CN1CC(CO)C2(CCNCC2)C1` (stereo unspecified): 520 s; `CCn1ccc2cc(S(=O)(=O)N3CCCC(C(=O)N4CCN(C)CC4)C3)ccc21` (stereo unspecified): 646 s. Compound `Cc1ccc(CNC(=O)Cn2cnc3nc4c(cc3c2=O)CCCC4)cc1` displayed an RP-LC retention time of 728 s. The compound `O=C(Nc1ccccc1)C1CCCN(c2ccc3cc(S(=O)(=O)N4CCCC4)ccc3n2)C1` (stereo unspecified) gave an RP-LC retention time of 773 s. The compound `c1cc(-c2nc(-c3ccc4c(c3)ncn4CCN3CCCCC3)no2)co1` came in with an RP-LC retention time of 598 s. As to `CC(=O)N1C[C@@H]2CCCN3CCC[C@@H]([C@H]23)[C@H]1CCCC(=O)NCC1CC1`, the RP-LC retention time came to 562 s.

`Cc1cccc(-c2nnc(C)c(N3CCC4(CC3)OCCO4)n2)c1` returned an RP-LC retention time of 673 s.

`CCN(CC)C(=O)c1c2c(nc3ccccc13)CCCC2` yielded an RP-LC retention time of 605 s. In the case of `CCc1noc(C)c1-c1[nH]c2ccccc2c1C(=O)C(=O)N(C)C`, the RP-LC retention time was determined as 714 s. Next, `CCCNC(=O)C1CCCN(c2nc3ncn(CC(=O)Nc4ccccc4F)c(=O)c3s2)C1` (stereo unspecified): 679 s; `O=C(O)c1nnn(-c2cccc(F)c2)c1-c1ccncc1`: 616 s. As for `Cc1cnn(Cc2c(C(=O)N3CCc4nn(C)c(=O)n4CC3)noc2C)c1`, the RP-LC retention time came to 602 s. As for `Cc1ccc(-n2nc(CO)c(C(=O)NC3CCCC3)n2)cc1C`, the RP-LC retention time came out at 1090 s. Next, `O=C(Cn1c(=O)ccc2cc(S(=O)(=O)N3CCCC3)ccc21)N1CCN(c2ccccn2)CC1`: 596 s.

Turning to `COC(=O)c1ccc2c(=O)n(Cc3cccc(OC)c3)c(N3CCN(c4ccccn4)CC3)nc2c1`, the RP-LC retention time worked out at 741 s.

`CCOC(=O)C(=O)Nc1nnc(SCc2nnc(-c3ccccc3C)o2)s1` displayed an RP-LC retention time of 829 s. `Cc1c(C(=O)NC(C)C)cnn1-c1ccc(-c2nc(C(C)C)no2)cn1`: the RP-LC retention time was 931 s. In turn, `CCc1nc2cc(-c3noc(-c4cc(OC)cc(OC)c4)n3)ccc2o1` had an RP-LC retention time of 1210 s. On to `Cc1cc(C2CCCN2C(=O)Nc2cc(Cl)ccc2C)on1` (stereo unspecified), for which the RP-LC retention time was 794 s.

Turning to `COc1ccc(S(=O)(=O)N2CCCC(C(=O)N3CCOCC3)C2)cc1OC` (stereo unspecified), the RP-LC retention time is 681 s.

Compound `CN1C(=O)c2cc(C(=O)N3CCCCC3)nn2CC1(C)C(=O)NC1CCCCCC1` (stereo unspecified) showed an RP-LC retention time of 782 s. Compound `Cc1ccc(C(=O)N2CCCCC2c2nncn2CC2CC2)s1` (stereo unspecified) displayed an RP-LC retention time of 740 s. With `CCN1C(=O)c2cccnc2Sc2cc(NC(=O)c3cc(C)cc(C)c3)ccc21`, the RP-LC retention time was found to be 918 s. For `CCCNC(=O)c1cn(-c2ccc(-c3nc(C(C)(C)C)no3)cn2)cn1` the value was 931 s.

For the compound `CN(C)c1ccc(C(=O)NCC(C)(O)c2ccco2)cc1` (stereo unspecified), the RP-LC retention time turned out to be 665 s. Regarding `COc1ccc(N2CC(C(=O)N3CCC(C(=O)Nc4nc(C)cs4)CC3)CC2=O)cc1` (stereo unspecified), the RP-LC retention time turned out to be 680 s.

As for `COc1ccc(OC)c(S(=O)(=O)N2CCCC(C(=O)NC(C)C)C2)c1` (stereo unspecified), the RP-LC retention time is 714 s. `CCN1CCN(C(=O)c2c(C)sc3ccn(CC(C)C)c(=O)c23)CC1` showed an RP-LC retention time of 598 s.

The compound `CCCN(C)C(=O)C1CCN(c2cnn(CCC)c(=O)c2)CC1` came in with an RP-LC retention time of 669 s. For `CCCc1cc(=O)n(CC(=O)Nc2ncccc2C)cn1` the value was 578 s; for `CCCc1cc(N2CCN(C(=O)c3ccc(OC)nc3)CC2)nc2nnc(CC)n12`, 623 s; for `COc1ccc(Cl)cc1NC(=O)N1CCCC1c1nc(-c2ccc(F)cc2F)no1` (stereo unspecified), 1120 s.

As for `CC(C)N1C(=O)C(C)(C(=O)NCc2ccccc2)Oc2cccnc21` (stereo unspecified), the RP-LC retention time turned out to be 912 s. On to `C=CCc1cccc(/C=N/NC(=O)C[NH+]2CCN(Cc3ccccc3)CC2)c1[O-]`, for which the RP-LC retention time turned out to be 783 s. In turn, `CC(C)(C)c1cnc(CSc2cnc(NC(=O)C3CCNCC3)s2)o1` yielded an RP-LC retention time of 677 s. As to `CCCCN(C(=O)c1ccc(S(=O)(=O)N2CCOCC2)cc1)C1CCS(=O)(=O)C1` (stereo unspecified), the RP-LC retention time came out at 687 s. Next, `O=C(Cn1cnc2ccccc21)N1CCN(Cc2nc(-c3ccc(F)cc3)cs2)CC1`: 586 s; `O=C(NC1CCCC1)c1ccc2ncnc(N3CCCCC3)c2c1`: 640 s. The compound `O=C(NCc1ccc(F)cc1)C(=O)NCC(c1ccc2c(c1)OCO2)N1CCOCC1` (stereo unspecified) displayed an RP-LC retention time of 648 s. The compound `Cc1ccccc1CNC(=O)CN1CCN(Cc2cccc(Cl)c2)C1=O` had an RP-LC retention time of 880 s. With `Cc1nnc(-c2nnc(NC3CCCCCC3)c3ccccc23)o1`, the RP-LC retention time stood at 766 s.

`CC1CCN(C(=O)c2cc(S(=O)(=O)N3CCC(C(=O)N4CCC(C)CC4)CC3)cn2C)CC1` showed an RP-LC retention time of 883 s. Take `CCNC(=O)N1CCCC(c2cccc(C(=O)NCCCN3CCCCC3)c2)C1` (stereo unspecified): the RP-LC retention time came to 596 s.

The compound `Cc1nc(-c2cn(C)c3ncccc23)sc1C(=O)NCc1ccc(F)cc1F` registered an RP-LC retention time of 887 s. Regarding `Cc1cccc(N(C)C(=O)Cn2cnc3nc4c(cc3c2=O)CCCC4)c1`, the RP-LC retention time was 705 s.

Regarding `Cc1ccc(-c2nc3ncccn3c2NCc2ccccc2)cc1C`, the RP-LC retention time was determined as 785 s. Next, `Cc1ccc2c(=O)c3c([nH]c2c1C)CCN(CC(=O)Nc1ccc(F)cc1)C3`: 626 s; `Cc1oc(-c2[nH]ncc2C(=O)N(C)C)cc1S(=O)(=O)NCc1ccc(Cl)cc1`: 725 s; `CCCN(CCC)C(=O)C1CCC(=O)N1S(=O)(=O)c1ccc(C)cc1` (stereo unspecified): 943 s.

In turn, `COc1ccc(OC)c(CCN2CC(=O)N(c3cccc(C)c3)[C@@H]3CS(=O)(=O)C[C@@H]32)c1` came in with an RP-LC retention time of 848 s. For the compound `Cc1cc(C)c(NC(=O)Cn2cnc3onc(C)c3c2=O)c(C)c1`, the RP-LC retention time was 764 s. `O=C(C1CCN(c2nc3ccc(-c4ccc(F)cc4)nc3s2)CC1)N1CCCC1` gave an RP-LC retention time of 944 s.

With `CN(C)c1ccc(-c2nc3ncccn3c2Nc2cccc(C(F)(F)F)c2)cc1`, the RP-LC retention time is 765 s. In turn, `O=C(c1cccs1)N1CCN(S(=O)(=O)c2cc(-c3noc(C4CCC4)n3)cs2)CC1` had an RP-LC retention time of 998 s. As for `CN(C)[C@@H]1CN(Cc2cccc(C#N)c2)C[C@H]1CO`, the RP-LC retention time was found to be 518 s. Next, `Cc1ccc(-c2noc(Cn3ccn(Cc4ccc(Cl)cc4)c(=O)c3=O)n2)cc1`: 951 s.

`Cc1ccc(C)c(NC(=O)Cn2c(N)nc(C)c(C)c2=O)c1`: the RP-LC retention time came to 631 s.
